Literature values as cited in US6569457B2, “Enteric coated pharmaceutical tablet and method of manufacturing” (priority 1998, dated 2003).

O=c1[nH]cnc2c1ncn2C1CCC(CO)O1 (stereo not shown) [ddl, 2′,3′-dideoxyinosine]
degradation at acidic pH: degrades rapidly
